Measured values taken from ChEMBL document CHEMBL1201862, “PubChem BioAssay data set” (2004).
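Exposure lasted 48 hours, with cells grown in 96-well plates and compounds tested at five concentrations. GI50 is the concentration that inhibits growth by half.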 Calls of active or inactive are those of the source. Rule as the data show it: active = GI50 up to about 1.1 µM and inactive = higher.

How the values were obtained:
Experiment in all cases: inhibition of tumour cell growth, NCI panel, 48 h
[1] = test system: BT-549
[2] = test system: SN12C
[3] = test system: MDA-MB-435
[4] = test system: PC-3
[5] = test system: SR
[6] = test system: Hs-578T
[7] = test system: U-251
[8] = test system: NCI-H460
[9] = test system: MCF7
[10] = test system: A498
[11] = test system: SF-268
[12] = test system: T47D
[13] = test system: SW-620
[14] = test system: IGROV-1
[15] = test system: SNB-75
[16] = test system: HCT-116
[17] = test system: UO-31
[18] = test system: SNB-19
[19] = test system: M14
[20] = test system: SK-OV-3

SMILES	GI50 [1]	GI50 [2]	GI50 [3]	GI50 [4]	GI50 [5]	GI50 [6]	GI50 [7]	GI50 [8]	GI50 [9]	GI50 [10]	GI50 [11]	GI50 [12]	GI50 [13]	GI50 [14]	GI50 [15]	GI50 [16]	GI50 [17]	GI50 [18]	GI50 [19]	GI50 [20]
CS(=O)(=O)Nc1ccc2c(c1)N(S(C)(=O)=O)CC2CCl (stereo not given)	> 100 µM (inactive)	> 100 µM (inactive)	> 100 µM (inactive)	> 100 µM (inactive)	> 100 µM (inactive)	> 100 µM (inactive)	> 100 µM (inactive)	> 100 µM (inactive)	> 100 µM (inactive)	> 100 µM (inactive)	> 100 µM (inactive)	> 100 µM (inactive)	> 100 µM (inactive)	> 100 µM (inactive)	> 100 µM (inactive)	> 100 µM (inactive)	> 100 µM (inactive)			
Nc1nccc(NCC2(CO)CC(OCc3ccccc3)C2)n1 (stereo not given)	> 100 µM (inactive)	> 100 µM (inactive)	> 100 µM (inactive)	> 100 µM (inactive)	> 100 µM (inactive)	> 100 µM (inactive)	> 100 µM (inactive)	> 100 µM (inactive)	> 100 µM (inactive)	> 100 µM (inactive)	> 10 µM (inactive)	7.98 µM (inactive)	> 100 µM (inactive)	> 100 µM (inactive)	> 100 µM (inactive)	90.4 µM (inactive)	84.5 µM (inactive)			
O=c1oc2ccccc2c(-c2ccc(O)cc2)c1Oc1ccc(Cl)cc1	23.2 µM (inactive)	24 µM (inactive)	30 µM (inactive)	25.8 µM (inactive)	18.2 µM (inactive)	16.1 µM (inactive)	22.3 µM (inactive)	20.4 µM (inactive)	4.88 µM (inactive)	26.6 µM (inactive)	23.6 µM (inactive)	29.6 µM (inactive)	30.5 µM (inactive)	20.3 µM (inactive)	18.7 µM (inactive)	15.8 µM (inactive)	18.1 µM (inactive)	22.4 µM (inactive)	17.1 µM (inactive)	
O=C(CSc1nc2ccc(I)cc2c(=O)n1Cc1ccccc1)Nc1ccccc1	20 µM (inactive)	19.6 µM (inactive)	> 100 µM (inactive)	11.4 µM (inactive)	11.2 µM (inactive)	3.65 µM (inactive)	14.3 µM (inactive)		50.6 µM (inactive)	15.6 µM (inactive)	8.77 µM (inactive)	21.2 µM (inactive)	92.7 µM (inactive)	25.2 µM (inactive)	2.94 µM (inactive)	42.1 µM (inactive)	0.331 µM (active)	17.5 µM (inactive)	52.1 µM (inactive)	12.1 µM (inactive)
CNC(=S)/C(C#N)=C(\N)N1CCN(C)CC1	> 100 µM (inactive)	> 100 µM (inactive)	> 100 µM (inactive)	> 100 µM (inactive)	> 100 µM (inactive)	> 100 µM (inactive)	> 100 µM (inactive)		> 100 µM (inactive)	> 100 µM (inactive)	> 100 µM (inactive)	> 100 µM (inactive)	> 100 µM (inactive)	> 100 µM (inactive)	> 100 µM (inactive)	> 100 µM (inactive)	> 100 µM (inactive)	> 100 µM (inactive)	> 100 µM (inactive)	> 100 µM (inactive)
O=c1ccn([C@@H]2C[C@H]2CO)c(=O)[nH]1	> 100 µM (inactive)	> 100 µM (inactive)	> 100 µM (inactive)	> 100 µM (inactive)	> 100 µM (inactive)	> 100 µM (inactive)	> 100 µM (inactive)	> 100 µM (inactive)	> 100 µM (inactive)	> 100 µM (inactive)	> 100 µM (inactive)	> 100 µM (inactive)	> 100 µM (inactive)	> 100 µM (inactive)	> 100 µM (inactive)	> 100 µM (inactive)	> 100 µM (inactive)	> 100 µM (inactive)	> 100 µM (inactive)	
